The values that follow come from paper PMC12022909, “A Multicomponent Reaction-Based Platform Opens New Avenues in Aryl Hydrocarbon Receptor Modulation” (ACS Central Science, 2025).

Data set [1] concerns HaCaT cells. In words: UVA phototoxicity, caspase 3 activity in HaCaT cells. The data set is classed as cell-based, human. The conditions noted are these: for UVA radiation-induced caspase activity (phototoxicity): HaCaT, 1 h, UVA 5 J/cm2. How it is done:
Irradiation with UVA and caspase 3 activity measurement […]
culture media was exchanged with PBS and the cells were sham or UVA (5 J/cm2) irradiated using the BS-02 irradiation chamber (Opsytec Dr. Gröbel, Ettlingen Germany). Media was added to the cells and after 4 h incubation, caspase 3 activity was measured as described previously.[33] Protein quantification was done with the Bio-Rad DC protein assay kit (Bio-Rad Laboratories, Hercules, CA) according to the manufacturer protocol.
We compared the phototoxic potential of five of our test compounds (8, 10, 5b, 5h, 4b) as well as the FDA-approved AhR activator […]
induced caspase activity at a concentration of 100 nM (Figure S36A). At a 10-fold higher concentration (1 µM) two of the test compounds […]
Figure S36. […] For statistical analysis a two-way ANOVA (Tukey post-hoc) was performed and data are shown as mean ± SEM. (*, p ≤ 0.05). […]

In data set [2] the test system is IL-19, CXCL1, and CCL26 gene expression. As to the kind of experiment: IL-13 triggered proinflammatory gene expression in HaCaT keratinocytes. The data set is classed as cell-based, human. As to conditions: IL-13 10 ng/mL. From the text: As AhR activation is beneficial for pathologies including chronic inflammatory skin diseases,[74] we assessed the potential anti-inflammatory role of our ligands by cotreating HaCaT keratinocytes with the proinflammatory cytokine IL-13 and a selection of 6-ICZs (Figure 7a).
Figure 7 Anti-inflammatory effect of the 6-ICZs. (a) Structure of the tested compounds and the control tapinarof (T). (b) IL-13 triggered gene expression of proinflammatory IL-19, CXCL1, and CCL26 expressed as fold of 0.1% DMSO control. HaCaT keratinocytes were treated with IL-13 (10 ng/mL) for 24 h, then either untreated (−) or treated with positive control T (1 μM) or 6-ICZs (1 μM). n = 3–4. For statistical analysis an unpaired t-test was performed and data are shown as mean ± SEM (*, p ≤ 0.05 compared to IL-13 (10 ng/mL)).
Cell culture and treatment
Human HaCaT and HaCaT-AhR-deficient keratinocytes were cultured in DMEM low glucose (1 g/l) medium (PAN Biotech, Aidenbach, Germany) supplemented with 10% (v/v) fetal bovine serum (PAN Biotech) and 1% (v/v) antibiotics/antimycotics (PAN Biotech). […]
Quantitative real-time PCR
The isolation of total RNA, reverse transcription, and quantitative real-time PCR was conducted as described previously.[26] […]
AhR-dependent reporter gene activity was determined in human HepG2 cells stably transfected with an XRE -harboring luciferase plasmid (XRE-HepG2 cells). […]

In the case of `CCOc1c2[nH]c3ccccc3c2cc2[nH]c3ccccc3c12` [compound 8, 6-ethoxy-ICZ], the “overlap between effective and toxic concentrations” value in data set [1] was “minimal overlap”. Besides, the “UVA radiation-induced caspase activity (phototoxicity)” value in data set [1] (100 nM) is listed as “neither tapinarof nor our 6-ICZ compounds enhanced”; in data set [1] (1 µM), “exhibited similar effects to FICZ”. Besides, the “anti-inflammatory potency compared with positive control tapinarof” value in data set [2] (1 μM) is reported as “slightly more potent than the positive control tapinarof”. Also, in data set [2] (24 h, compound 1 μM), the “IL-13-triggered induction of IL-19, CXCL1, and CCL26 gene expression” value is recorded as “significantly reduced”.
